Values of other authors, collected in patent US12616707B2, “Compositions and methods for improving gut health” (Plexus Worldwide, LLC., priority 2017, dated 2026).

Experiments:
[1] = tested on: DSS-induced colitis model; conditions: chlorogenic acid supplementation
[2] = 0.02% (wt/wt) in high-fat diet vs high-fat control group

Question: With `O=C(/C=C/c1ccc(O)c(O)c1)O[C@@H]1C[C@](O)(C(=O)O)C[C@@H](O)[C@H]1O` [chlorogenic acid] as the molecule, how does the Body weight (high-fat fed mice; [2]) read?
Answer: The Body weight was “significantly lowered”.

Question: And the Plasma insulin levels (high-fat fed mice; [2])?
Answer: The Plasma insulin levels was “significantly lowered”.

Question: And the Plasma leptin levels (high-fat fed mice; [2])?
Answer: The Plasma leptin levels was “significantly lowered”.

Question: What about the Visceral fat mass (high-fat fed mice; [2]) of the same molecule?
Answer: Its Visceral fat mass is “significantly lowered”.

Question: And the “Cholesterol concentrations (plasma, adipose tissue and heart)” value (high-fat fed mice; high-fat diet)?
Answer: Its value is “lowered”.

Question: What about the “Triglyceride concentrations (plasma, liver and heart)” value (high-fat fed mice; high-fat diet) of the same molecule?
Answer: The value was “lowered”.

Question: What about the IL-1β expression [1] of the same molecule?
Answer: The IL-1β expression was “significant suppression”.
